Patent publication US20090036530A1, “Crystalline acid of lipoxin A4 analogs and method of making” (Bayer Schering Pharma Aktiengesellschaft, priority 2006, published 2009)

Test: Hygroscopicity study in automated water sorption analyzer (sorption/desorption isotherm)
Format: physicochemical
Description: Polymorph I of the free acid is transformed above 60% relative humidity into the hydrate. It is hygroscopic and adsorbs at 80% relative humidity approx. 8% moisture, which corresponds to a dihydrate of the substance. The hydration is reversible. Below 40% relative humidity a transformation into polymorph I is observed.
Data collection for the hygroscopicity studies was carried out in an automated water sorption analyzer. Approximately 10 mg of the investigated solid state form of the crystalline acid was exposed to a continuous flow of nitrogen with predetermined and constant relative humidity. The rate of sweep gas was set at 200 cm^3/min. For a basic assay, two full cycles (sorption/desorption) were measured at 25° C. The measurement was started at 0% relative humidity in order to remove surface water. Once the constant mass was achieved, the next humidity was automatically set. The water sorption/desorption was investigated in steps of 10% between 0% and 90% relative humidity under the criteria for initiation of the first step as set forth herein. Additionally, the sorption at about 98% relative humidity was investigated. Data was acquired using the DVSWin software.

## O=C(O)COC[C@H](O)[C@H](O)/C=C/C=C/C#C/C=C/[C@H](O)COc1ccc(F)cc1 [hydrate, 2-((2S,3R,4E,6E,10E,12S)-13-(4-fluorophenoxy)-2,3,12-trihydroxytrideca-4,6,10-trien-8-ynyloxy)acetic acid]
desorption
  relative humidity below which transformation into polymorph I is observed: Below 40 % relative humidity

## O=C(O)COC[C@H](O)[C@H](O)/C=C/C=C/C#C/C=C/[C@H](O)COc1ccc(F)cc1 [polymorph I, 2-((2S,3R,4E,6E,10E,12S)-13-(4-fluorophenoxy)-2,3,12-trihydroxytrideca-4,6,10-trien-8-ynyloxy)acetic acid]
25° C., water sorption
  relative humidity above which polymorph I is transformed into the hydrate: above 60 % relative humidity
At 80% relative humidity, corresponds to a dihydrate
  moisture adsorbed: approx. 8%
Sorption isotherm, FIG. 1
  hygroscopicity (in words): hygroscopic
sorption/desorption cycles
  reversibility of the hydration: reversible
